Each block holds one molecule with its values, some of them ahead of it.
Legend:
[1] = Solubility in distilled water at 25° C.; settings: 24 hours standing
Experimental: The solubility of the specific ultraviolet absorbing agent in water in the present disclosure can be measured by the following method from the amount of the specific ultraviolet absorbing agent dissolved in 10 g of distilled water at 25° C.
After mixing 10 g of distilled water with 1 g of the specific ultraviolet absorbing agent, the resultant mixture is irradiated with ultrasonic waves at a liquid temperature of 25° C. for 15 minutes and then allowed to stand for 24 hours while the liquid temperature is maintained at 25° C. For ultrasonic irradiation, a desktop ultrasonic cleaner 1510, manufactured by Branson Ultrasonics, Emerson Japan, Ltd. is used.
After being allowed to stand for 24 hours, filtration is carried out through a membrane filter (0.1 μm mesh, manufactured by [sequence] Co., Ltd.). The unfiltered specific ultraviolet absorbing agent is collected, dried, and then weighed. The amount of the unfiltered specific ultraviolet absorbing agent is subtracted from 1 g of the specific ultraviolet absorbing agent to obtain an amount of the specific ultraviolet absorbing agent dissolved in water, and the solubility of the specific ultraviolet absorbing agent in water is calculated from that the obtained amount value.

[2] = Light fastness of laminate, metal halide lamp irradiation; format: physicochemical; settings: change in transmittance at 380 nm after 60 hours metal halide lamp, 90 mW/cm^2, 63° C., 50% RH
Experimental: First, the transmittance of the obtained laminate of the glass plate and the ultraviolet absorbing film at a wavelength of 380 nm was measured using a spectrophotometer (model number: UV 3150) manufactured by Shimadzu Corporation.
Next, using a super-accelerated weather fastness tester [product name: EYE SUPER UV Tester, IWASAKI ELECTRIC Co., Ltd.], the obtained laminate of the glass plate and the ultraviolet absorbing film was irradiated with light (about 290 nm […]) of a metal halide lamp for 60 hours under the conditions of an illuminance of 90 mW/cm^2 ([…]), a temperature of 63° C., and a relative humidity of 50%.
After light irradiation, the transmittance of the obtained laminate of the glass plate and the ultraviolet absorbing film at a wavelength of 380 nm was measured in the same manner as described above using a spectrophotometer (model number: UV 3150) manufactured by Shimadzu Corporation.
The width of change in transmittance at a wavelength of 380 nm before and after the light irradiation was calculated, and the light fastness was evaluated as “particularly good” in a case where the width of change was less than 5%, the light fastness was evaluated as “good” in a case where the width of change was 5% or more and less than 10%, and the light fastness was evaluated as “bad” in a case where the width of change was 10% or more.

[3] = Moist heat resistance test of laminate (60° C., 90% RH, 160 hours); format: physicochemical; settings: for Haze after moist heating: after 160 hours at 60° C.; for Haze after moist heating / Moist heat resistance: 90% RH; for Moist heat resistance: change in transmittance at 380 nm after 160 hours at 60° C.
Experimental: The moist heat test was carried out with a constant temperature and humidity device (IG420, manufactured by Yamato Scientific Co., Ltd.) under the conditions of a temperature of 60° C. and a humidity of 90% RH. The transmittance at 380 nm after the lapse of 160 hours was measured by the above method. The width of change in transmittance at a wavelength of 380 nm before and after the moist heat resistance test was calculated, and the moist heat resistance was evaluated as “particularly good” in a case where the width of change was less than 5%, the moist heat resistance was evaluated as “good” in a case where the width of change was 5% or more and less than 10%, and the moist heat resistance was evaluated as “bad” in a case where the width of change was 10% or more.
The haze after the moist heat resistance test was measured by the same method as in (2. Initial haze) described above.

[4] = Maximum absorption wavelength by spectrophotometer; format: physicochemical; settings: H2O
Experimental: The maximum absorption wavelength of the ultraviolet absorbing agent can be measured, for example, using a spectrophotometer. Examples of the device include a spectrophotometer UV3600 and an ultraviolet-visible-near infrared spectrophotometer UV 3150, manufactured by Shimadzu Corporation. In the present disclosure, the maximum absorption wavelength of the ultraviolet absorbing agent is measured using a spectrophotometer UV3600.
The measurement is carried out at room temperature (25° C.), and the absorbance is measured using a spectrophotometer to obtain an absorption spectrum while air is referenced as a control as the measurement condition.
In a case where an absorbance at a wavelength in a predetermined wavelength range is measured, the maximum absorption wavelength, the transmittance, and the like can be calculated.

[5] = Molar absorption coefficient in pure water; format: physicochemical; settings: 1.0 mg in 100 mL pure water, 1 cm cell, at maximum absorption wavelength; in L/(mol·cm) (unit assumed)
Experimental: After dissolving 1.0 mg of a sample in 100 mL of pure water, the absorbance of the aqueous solution was measured in a 1 cm cell using a spectrophotometer (model number: UV 3150) manufactured by Shimadzu Corporation. From the measurement results, the molar absorption coefficient was calculated from the value of the absorbance at the maximum absorption wavelength using the Lambert-Beer law.

[6] = 5.0 parts agent/45.0 parts PVA film
[7] = 2.0 parts agent/98.0 parts PVA film

Structure (SMILES): CCCCOc1ccc(OCCCC)c2c1SC(=C(C#N)C(=O)OCCCCS(=O)(=O)[O-])S2.[Na+] [Compound M-9]
- Solubility (25° C.) [1]: 2.1 % by mass

Structure (SMILES): N#CC(C#N)=C1Sc2c(OCCCCP(=O)(O)O)ccc(OCCCCP(=O)(O)O)c2S1 [Compound M-7]
- Solubility (25° C.) [1]: 2.0 % by mass

Structure (SMILES): CCCCOc1ccc(OCCCC)c2c1SC(=C1C(=O)N(CCCCP(=O)(O)O)N(CCCCP(=O)(O)O)C1=O)S2 [Compound M-19]
- Solubility (25° C.) [1]: 3.0 % by mass

Structure (SMILES): CCCCN1C(=O)C(=C2Sc3c(OCCCCP(=O)(O)O)ccc(OCCCCP(=O)(O)O)c3S2)C(=O)N1CCCC [Compound M-17]
- Solubility (25° C.) [1]: 3.0 % by mass

Structure (SMILES): CCCCN1C(=O)C(=C2Sc3c(OCCCCS(=O)(=O)[O-])c4c(c(OCCCCS(=O)(=O)[O-])c3S2)SC(=C2C(=O)N(CCCC)N(CCCC)C2=O)S4)C(=O)N1CCCC.[Na+].[Na+] [Compound H-4, reference compound]
- Light fastness [2, 6]: Good (the width of change was 5% or more and less than 10%)
- Haze after moist heating [3, 6]: 18%
- Moist heat resistance [3, 6]: Bad (the width of change was 10% or more)
- haze after the moist heat resistance test ([3]; in words, summary of Table 1): significantly increased

Structure (SMILES): N#CC(C(=O)c1ccccc1)=C1Sc2c(OCCCS(=O)(=O)[O-])ccc(OCCCS(=O)(=O)[O-])c2S1.[Na+].[Na+] [Compound M-2]
- Solubility (25° C.) [1]: 2.9 % by mass

Structure (SMILES): CC(C)(C)C(=O)C(C#N)=C1Sc2c(OCCCCS(=O)(=O)[O-])ccc(OCCCCS(=O)(=O)[O-])c2S1.[Na+].[Na+] [Compound M-1]
- Solubility (25° C.) [1]: 3.2 % by mass

Structure (SMILES): CCCCC(CC)COc1ccc(OCC(CC)CCCC)c2c1SC(=C1C(=O)N(CCCC)N(CCCC)C1=O)S2 (centres unmarked) [Compound H-5, reference compound]
- Light fastness [2, 6]: Bad (the width of change was 10% or more)
- Haze after moist heating [3, 6]: 68%
- Moist heat resistance [3, 6]: Bad (the width of change was 10% or more)

Structure (SMILES): O=C(c1ccc(O)cc1O)c1ccc(O)cc1O [Compound H-1, reference compound]
- Light fastness [2, 6]: Bad (the width of change was 10% or more)
- Haze after moist heating [3, 6]: 6.1%
- Moist heat resistance [3, 6]: Bad (the width of change was 10% or more)

Structure (SMILES): O=S(=O)([O-])CCNc1nc(NCCS(=O)(=O)[O-])nc(Nc2ccc(C=Cc3ccc(Nc4nc(NCCS(=O)(=O)[O-])nc(NCCS(=O)(=O)[O-])n4)cc3S(=O)(=O)[O-])c(S(=O)(=O)[O-])c2)n1.[Na+].[Na+].[Na+].[Na+].[Na+].[Na+] [Compound H-3, reference compound]
- Light fastness [2, 6]: Bad (the width of change was 10% or more)
- Haze after moist heating [3, 6]: 9.5%
- Moist heat resistance [3, 6]: Bad (the width of change was 10% or more)

Structure (SMILES): CCCCOc1ccc(OCCCC)c2c1SC(=C(C#N)C(=O)OCCCCP(=O)(O)O)S2 [Compound M-10]
- Solubility (25° C.) [1]: 1.9 % by mass

Structure (SMILES): N#CC(C#N)=C1Sc2c(OC(=O)CCC(=O)[O-])ccc(OC(=O)CCC(=O)[O-])c2S1.[Na+].[Na+] [Compound M-8]
- Light fastness [2, 7]: Particularly good (the width of change was less than 5%)
- Light fastness [2, 6]: Particularly good (the width of change was less than 5%)
- Haze after moist heating [3, 7]: 0.3%
- Haze after moist heating [3, 6]: 0.4%
- Moist heat resistance [3, 7]: Particularly good (the width of change was less than 5%)
- Moist heat resistance [3, 6]: Good (the width of change was 5% or more and less than 10%)
- Solubility (25° C.) [1]: 2.6 % by mass

Continued, in another order:

- Maximum absorption wavelength [4]: 390 nm
- Molar absorption coefficient [5]: 27,400
- Haze after moist heating [3, 6]: 0.28%
- Solubility (25° C.) [1]: 3.1 % by mass
Structure (SMILES): CON=CC(C#N)=C1Sc2c(OCCCCS(=O)(=O)[O-])ccc(OCCCCS(=O)(=O)[O-])c2S1.[Na+].[Na+] [Compound M-5]
- Light fastness [2, 6]: Particularly good (the width of change was less than 5%)
- Moist heat resistance [3, 6]: Particularly good (the width of change was less than 5%)

- Solubility (25° C.) [1]: 2.9 % by mass
Structure (SMILES): O=C1C(=C2Sc3c(OCCS(=O)(=O)[O-])ccc(OCCS(=O)(=O)[O-])c3S2)C(=O)N(CCCS(=O)(=O)[O-])N1CCCS(=O)(=O)[O-].[Na+].[Na+].[Na+].[Na+] [Compound M-16]

- Maximum absorption wavelength [4]: 372 nm
- Molar absorption coefficient [5]: 28,100
- Haze after moist heating [3, 7]: 0.1%
- Haze after moist heating [3, 6]: 0.24%
- Solubility (25° C.) [1]: 3.1 % by mass
Structure (SMILES): N#CC(C#N)=C1Sc2c(OCCCCS(=O)(=O)[O-])ccc(OCCCCS(=O)(=O)[O-])c2S1.[Na+].[Na+] [Compound M-3]
- Light fastness [2, 7]: Particularly good (the width of change was less than 5%)
- Light fastness [2, 6]: Particularly good (the width of change was less than 5%)
- Moist heat resistance [3, 7]: Particularly good (the width of change was less than 5%)
- Moist heat resistance [3, 6]: Particularly good (the width of change was less than 5%)

- Solubility (25° C.) [1]: 3.3 % by mass
Structure (SMILES): O=C1C(=C2Sc3c(OCCCCS(=O)(=O)[O-])ccc(OCCCCS(=O)(=O)[O-])c3S2)C(=O)N(c2ccccc2)N1c1ccccc1.[Na+].[Na+] [Compound M-13]

- Solubility (25° C.) [1]: 2.9 % by mass
Structure (SMILES): CCCCC(CC)COc1ccc(OCC(CC)CCCC)c2c1SC(=C1C(=O)N(CCCCS(=O)(=O)[O-])N(CCCCS(=O)(=O)[O-])C1=O)S2.[Na+].[Na+] (centres unmarked) [Compound M-15]

- Solubility (25° C.) [1]: 3.7 % by mass
Structure (SMILES): CCCCOc1ccc(OCCCCS(=O)(=O)[O-])c2c1SC(=C1C(=O)N(CCCCS(=O)(=O)[O-])N(CCCCS(=O)(=O)[O-])C1=O)S2.[Na+].[Na+].[Na+] [Compound M-14]

- Solubility (25° C.) [1]: 2.9 % by mass
Structure (SMILES): CCCCOc1ccc(OCCCC)c2c1SC(=C1C(=O)N(CCCCC(=O)[O-])N(CCCCC(=O)[O-])C1=O)S2.[Na+].[Na+] [Compound M-20]

- Solubility (25° C.) [1]: 3.6 % by mass
Structure (SMILES): CCCCN1C(=O)C(=C2Sc3c(OCCCS(=O)(=O)[O-])ccc(OCCCS(=O)(=O)[O-])c3S2)C(=O)N1CCCC.[Na+].[Na+] [Compound M-12]

- Maximum absorption wavelength [4]: 387 nm
- Molar absorption coefficient [5]: 35,900
- Haze after moist heating [3, 7]: 0.1%
- Haze after moist heating [3, 6]: 0.26%
Structure (SMILES): CCCCN1C(=O)C(=C2Sc3c(OCCCCS(=O)(=O)[O-])ccc(OCCCCS(=O)(=O)[O-])c3S2)C(=O)N1CCCC.[Na+].[Na+] [Compound M-11]
- Light fastness [2, 7]: Particularly good (the width of change was less than 5%)
- Light fastness [2, 6]: Particularly good (the width of change was less than 5%)
- Moist heat resistance [3, 7]: Particularly good (the width of change was less than 5%)
- Moist heat resistance [3, 6]: Particularly good (the width of change was less than 5%)

Reference: patent publication US12173188B2, “Ultraviolet absorbing agent, ultraviolet absorbing composition, ultraviolet absorbing film, laminate, and novel compound” (FUJIFILM CORPORATION, priority 2019, dated 2024)
